Values quoted from earlier work in US20220346434A1, “ORAL COMPOSITIONS AND METHODS OF MANUFACTURE” (NICOVENTURES TRADING LIMITED, priority 2021, published 2022).

Assays:
[1] = for solubility in water / aqueous environment: water or aqueous environment (e.g., saliva)
[2] = converts via isomerization into trans-bixin (β-bixin)

SMILES | solubility in fats and alcohols ([1]; fats and alcohols) | solubility in water / aqueous environment [1] | chemical stability when isolated [2]
COC(=O)/C=C/C(C)=C\C=C\C(C)=C\C=C\C=C(C)\C=C\C=C(C)\C=C\C(=O)O [bixin] | soluble in fats and alcohols | insoluble in water | chemically unstable when isolated
CC(/C=C/C=C(C)/C=C/C(=O)O)=C\C=C\C=C(C)\C=C\C=C(C)\C=C\C(=O)O (stereo in doubt) [norbixin, (2E,4E,6E,8E,10E,12E,14E,16E,18E)-4,8,13,17-tetramethylicosa-2,4,6,8,10,12,14,16,18-nonaenedioic acid] | – | water soluble | –
C=C(C)[C@@H]1CCC(C)=C[C@H]1c1c(O)cc(CCCCC)cc1O [CBD, cannabidiol, reference compound] | – | insoluble in an aqueous environment | –
